Data on 1 compound can be found in US20090215849A1, “High stability aqueous gels comprising metronidazole and methods for the preparation thereof” (GALDERMA S.A., priority 2005, published 2009).

A short description of this series: Solubility of metronidazole in water. The settings on record: water/propylene glycol mixtures said to give higher solubilities (values not given). It is filed as physicochemical. From the text: Without wishing to be bound by any particular theory, it is possible that the stabilizing effect according to the invention is at least partly due to the fact that a mixture of water and propylene glycol allows a very good solubilization of metronidazole, in particular when the water and the propylene glycol are present in the abovementioned advantageous ranges, whereas a lower solubilization is obtained when the propylene glycol is introduced after the dissolution of the metronidazole in water, even when the propylene glycol is post-introduced in large quantities as in the method of U.S. Pat. No. 4,837,378.

In the case of `Cc1ncc([N+](=O)[O-])n1CCO` [Metronidazole, 1-(2-hydroxyethyl)-2-methyl-5-nitroimidazole], the solubility in water is ~0.78%.
